Data as given in US8735387B2, “Oxazolopyrimidines as Edg-1 receptor agonists” (Sanofi, priority 2008, dated 2014).

Target: T1, human Edg-1 receptor (Homo sapiens, UniProt P21453)
T1 construct: expressed in transfected cells; membrane preparation
Assay: GTP-γ-S assay using human Edg-1 receptors (scintillation proximity assay, membrane preparation from CHO Flp-In cell line)
Assay type: biochemical
Conditions: example compound at 10 μM; relative to 10 μM S1P; GTP-γ-S SPA, human Edg-1 membranes
In short: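 Scintillation proximity GTP-γ-S binding assay measuring receptor activation. Membranes prepared from a CHO Flp-In line stably overexpressing N-terminally FLAG-tagged human Edg-1.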

T1 sequence (P21453 whole entry): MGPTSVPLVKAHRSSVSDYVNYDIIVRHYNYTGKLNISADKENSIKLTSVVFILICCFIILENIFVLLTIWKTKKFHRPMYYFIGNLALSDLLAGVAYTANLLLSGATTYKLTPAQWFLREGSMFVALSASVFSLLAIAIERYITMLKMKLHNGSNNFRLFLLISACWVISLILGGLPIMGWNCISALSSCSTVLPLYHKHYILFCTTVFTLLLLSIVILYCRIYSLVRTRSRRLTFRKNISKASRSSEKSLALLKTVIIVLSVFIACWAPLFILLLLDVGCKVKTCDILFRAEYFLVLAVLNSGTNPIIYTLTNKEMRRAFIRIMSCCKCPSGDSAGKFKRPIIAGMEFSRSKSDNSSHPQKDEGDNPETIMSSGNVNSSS

% Activation (Edg-1 receptor activation in percent of the activation by 10 μM S1P) | SMILES
74% | CCOc1nc(Cc2ccc(Cl)cc2)nc2oc(-c3cc(C)c(OCC(=O)NCCC(=O)OC(C)(C)C)c(C)c3)nc12 [Example 255]
69% | CCCOc1nc(Cc2ccc(Cl)cc2)nc2oc(-c3cc(C)c(OCC(=O)NCC(=O)OC(C)(C)C)c(C)c3)nc12 [Example 256]
122% | CCOc1nc(Cc2ccc(Cl)cc2)nc2oc(-c3cc(C)c(OCC(O)CNCc4ccccc4)c(C)c3)nc12 (stereo not shown) [Example 257]
97% | CCOc1nc(Cc2ccc(Cl)cc2)nc2oc(-c3cc(C)c(OCC(O)CNC(=O)CO)c(C)c3)nc12 (stereo not shown) [Example 258]
66% | CCOc1nc(Cc2ccc(Cl)cc2)nc2oc(-c3cc(C)c(OCC(O)CN(C(C)C)C(C)C)c(C)c3)nc12 (stereo not shown) [Example 259]
95% | CCOc1nc(Cc2ccc(Cl)cc2)nc2oc(-c3cc(C)c(OCC(O)CNC(=O)C4(O)CC4)c(C)c3)nc12 (stereo not shown) [Example 260]
86% | CCOc1nc(Cc2ccc(Cl)cc2)nc2oc(-c3cc(C)c(OCC(O)CNC4CCC(C(F)(F)F)CC4)c(C)c3)nc12 (stereo not shown) [Example 261]
43% | CCOc1nc(Cc2ccc(Cl)cc2)nc2oc(-c3cc(C)c(OCC(O)CNC4CCN(CC(C)C)CC4)c(C)c3)nc12 (stereo not shown) [Example 262]
138% | CCOc1nc(Cc2ccc(Cl)cc2)nc2oc(-c3cc(C)c(OCC(O)CN)c(C)c3)nc12 (stereo not shown) [Example 263]
55% | CCOc1nc(Cc2ccc(Cl)cc2)nc2oc(-c3cc(C)c(OCC(O)CN(C)C)c(C)c3)nc12 (stereo not shown) [Example 264]
132% | CCOc1nc(Cc2ccc(Cl)cc2)nc2oc(-c3cc(C)c(OCC(O)CNC4CCC(C)CC4)c(C)c3)nc12 (stereo not shown) [Example 265]
52% | CCOc1nc(Cc2ccc(Cl)cc2)nc2oc(-c3cccc(OCC(=O)NCCN4CCOCC4)c3)nc12 [Example 266]
72% | CCOc1nc(Cc2ccc(Cl)cc2)nc2oc(-c3cccc(OCC(=O)NCC(=O)O)c3)nc12 [Example 267]
100% | CCOc1nc(Cc2ccc(Cl)cc2)nc2oc(-c3cccc(OCC(=O)N[C@@H](C)C(=O)O)c3)nc12 [Example 268]
69% | CCOc1nc(Cc2ccc(Cl)cc2)nc2oc(-c3cccc(OCC(=O)N4CCC[C@@H]4C(=O)O)c3)nc12 [Example 269]
104% | CCOc1nc(Cc2ccc(Cl)cc2)nc2oc(-c3cccc(OCC(=O)N4CCC[C@H]4C(=O)O)c3)nc12 [Example 270]
53% | CCOc1nc(Cc2ccc(Cl)cc2)nc2oc(-c3cccc(OCC(=O)NC(C)(C)C(=O)O)c3)nc12 [Example 271]
105% | CCOc1nc(Cc2ccc(Cl)cc2)nc2oc(-c3cc(C)c(OCC(O)CS(=O)(=O)c4nnc(C)[nH]4)c(C)c3)nc12 (stereo not shown) [Example 272]
106% | CCOc1nc(Cc2ccc(Cl)cc2)nc2oc(-c3ccc(O)c(F)c3)nc12 [Example 273]
120% | CCOc1nc(Cc2ccc(Cl)cc2)nc2oc(-c3cc(C)c(OCCCS(=O)(=O)c4nnc(C5CC5)[nH]4)c(C)c3)nc12 [Example 274]
88% | CCOc1nc(Cc2ccc(Cl)cc2)nc2oc(-c3cc(C)c(OCCCS(=O)(=O)c4nnc(C(C)C)[nH]4)c(C)c3)nc12 [Example 275]
54% | CCOc1nc(Cc2ccc(Cl)cc2)nc2oc(-c3cc(C)c(OCCCSc4nnc(C5CC5)[nH]4)c(C)c3)nc12 [Example 276]
49% | CCOc1nc(Cc2ccc(Cl)cc2)nc2oc(-c3ccc(OC)c(F)c3)nc12 [Example 277]
105% | CCOc1nc(Cc2ccc(Cl)cc2)nc2oc(-c3cc(C)c(OCCCS(=O)(=O)c4nnc(C(C)(C)C)[nH]4)c(C)c3)nc12 [Example 278]
77% | CCOc1nc(Cc2ccc(Cl)cc2)nc2oc(-c3ccc(OCC(=O)NCCN4CCOCC4)c(F)c3)nc12 [Example 279]
53% | CCOc1nc(Cc2ccc(Cl)cc2)nc2oc(-c3cc(C)c(OCC(O)CNCCCNS(C)(=O)=O)c(C)c3)nc12 (stereo not shown) [Example 280]
79% | CCOc1nc(Cc2ccc(Cl)cc2)nc2oc(-c3cc(C)c(OCC(O)CSc4nnc(C5CC5)[nH]4)c(C)c3)nc12 (stereo not shown) [Example 281]
108% | CCOc1nc(Cc2ccc(Cl)cc2)nc2oc(-c3cc(C)c(OCC(O)CSc4nnc(C(C)(C)C)[nH]4)c(C)c3)nc12 (stereo not shown) [Example 282]

% Activation (Edg-1 receptor activation in percent of the activation by 10 μM S1P) | SMILES
92% | CCOc1nc(Cc2ccc(Cl)cc2)nc2oc(-c3cc(C)c(OCC(O)CS(=O)(=O)c4nnc(C(C)(C)C)[nH]4)c(C)c3)nc12 (stereo not shown) [Example 283]
103% | CCOc1nc(Cc2ccc(Cl)cc2)nc2oc(-c3cccc(OC)c3)nc12 [Example 284]
146% | CCOc1nc(Cc2ccc(Cl)cc2)nc2oc(-c3cc(C)c(OCCCNCCc4nc(O)n[nH]4)c(C)c3)nc12 [Example 285]
114% | CCOc1nc(Cc2ccc(Cl)cc2)nc2oc(-c3cc(C)c(OCC(O)C[S+]([O-])c4ncn[nH]4)c(C)c3)nc12 (stereo not shown) [Example 286]
112% | CCOc1nc(Cc2ccc(Cl)cc2)nc2oc(-c3cc(C)c(OCC(=O)NCCS(N)(=O)=O)c(C)c3)nc12 [Example 287]
113% | CCOc1nc(Cc2ccc(Cl)cc2)nc2oc(-c3cc(C)c(OCC(=O)NCCCC(=O)O)c(C)c3)nc12 [Example 288]
80% | CCCOc1nc(Cc2ccc(Cl)cc2)nc2oc(-c3cc(C)c(OCCCN[C@@H](Cc4ccccc4)C(=O)O)c(C)c3)nc12 [Example 289]
114% | CCOc1nc(Cc2ccc(Cl)cc2)nc2oc(-c3cc(C)c(OCC(=O)NCCNS(C)(=O)=O)c(C)c3)nc12 [Example 290]
116% | CCOc1nc(Cc2ccc(Cl)cc2)nc2oc(-c3cc(C)c(OCC(O)CS(=O)(=O)c4ncn[nH]4)c(C)c3)nc12 (stereo not shown) [Example 291]
86% | CCOc1nc(Cc2ccc(Cl)cc2)nc2oc(-c3cc(C)c(OCCC[S+]([O-])c4ncn[nH]4)c(C)c3)nc12 (stereo not shown) [Example 292]
99% | CCOc1nc(Cc2ccc(Cl)cc2)nc2oc(-c3cc(C)c(OCC(O)CSc4ncn[nH]4)c(C)c3)nc12 (stereo not shown) [Example 293]
83% | CCOc1nc(Cc2ccc(Cl)cc2)nc2oc(-c3cc(C)c(OCC(=O)NCC#N)c(C)c3)nc12 [Example 294]
100% | CCOc1nc(Cc2ccc(Cl)cc2)nc2oc(-c3cc(C)c(OCCCS(=O)(=O)c4ncn[nH]4)c(C)c3)nc12 [Example 295]
52% | CCOc1nc(Cc2ccc(Cl)cc2)nc2oc(-c3cc(C)c(OCCCSc4ncn[nH]4)c(C)c3)nc12 [Example 296]
99% | CCOc1nc(Cc2ccc(Cl)cc2)nc2oc(-c3cccc(OCC(=O)N[C@@H](CO)C(=O)O)c3)nc12 [Example 297]
92% | CCOc1nc(Cc2ccc(Cl)cc2)nc2oc(-c3cccc(OCC(=O)NCCC(=O)O)c3)nc12 [Example 298]
94% | CCOc1nc(Cc2ccc(Cl)cc2)nc2oc(-c3cc(C)c(OCC(=O)NCCCNS(C)(=O)=O)c(C)c3)nc12 [Example 299]
89% | CCOc1nc(Cc2ccc(Cl)cc2)nc2oc(-c3cc(C)c(OCC(O)CS(=O)(=O)c4nnc(C5CC5)[nH]4)c(C)c3)nc12 (stereo not shown) [Example 300]
97% | CCOc1nc(Cc2ccc(Cl)cc2)nc2oc(-c3cc(C)c(OCC4(CO)COC4)c(C)c3)nc12 [Example 301]
103% | CCOc1nc(Cc2ccc(Cl)cc2)nc2oc(-c3cccc(O)c3)nc12 [Example 302]
104% | CCCOc1nc(CN2CC[C@@H](F)C2)nc2oc(-c3cccc(F)c3)nc12 [Example 303]
102% | CCCOc1nc(CN2CCCC(C(F)(F)F)C2)nc2oc(-c3cccc(F)c3)nc12 (stereo not shown) [Example 304]
103% | CCCOc1nc(Cc2ccc(Cl)cc2)nc2oc(-c3cc(C)c(OCC(O)CNC(=O)c4ccco4)c(C)c3)nc12 (stereo not shown) [Example 305]
81% | CCCOc1nc(Cc2ccc(Cl)cc2)nc2oc(-c3cc(C)c(OCC(=O)N4CCOCC4)c(C)c3)nc12 [Example 306]
10% | CCCOc1nc(Cc2ccc(Cl)cc2)nc2oc(-c3cc(C)c(OCC(=O)N4CCC[C@H]4C(=O)OC(C)(C)C)c(C)c3)nc12 [Example 307]
107% | CCCOc1nc(Cc2ccc(Cl)cc2)nc2oc(-c3cc(C)c(OCC(O)CNC(=O)C4(O)CC4)c(C)c3)nc12 (stereo not shown) [Example 308]
104% | CCOc1nc(CC2CCCCC2)nc2oc(-c3cccc(C)c3)nc12 [Example 309]
